Data as given in US20250230193A1, “CYCLIC COMPOUND HAVING SELECTIVE KRAS INHIBITORY EFFECT ON HRAS AND NRAS” (CHUGAI SEIYAKU KABUSHIKI KAISHA, priority 2022, published 2025).
Where a SMILES comes first, the peptide text is derived from it. Bridges are numbered along the chain shown (N, C = ends). [ ]: non-standard residue; d: D form. The star is where a group is joined. hPhe(3-Cl-4-CF3) = N[C@@H](CCc1ccc(C(F)(F)F)c(Cl)c1)C(=O)O; NPrPhe(4-CF3) = CCCN[C@@H](Cc1ccc(C(F)(F)F)cc1)C(=O)O; NPrPhe(4-Me) = CCCN[C@@H](Cc1ccc(C)cc1)C(=O)O; Pip(4,4-F2) = O=C(O)[C@@H]1CC(F)(F)CCN1; NMeGly(cPent) = CN[C@H](C(=O)O)C1CCCC1; NMeD = CN[C@@H](CC(=O)O)C(=O)O; NMeL = CN[C@@H](CC(C)C)C(=O)O; Morpholide = C1CN(*)CCO1; Ac5c = NC1(C(=O)O)CCCC1; NEtG = CCNCC(=O)O; Sar = CNCC(=O)O

Key:
[1] = target: GDP-bound HRAS wild-type protein (Homo sapiens, UniProt P01112); assay: Binding to HRAS by surface plasmon resonance (SPR), Single Cycle Kinetics; settings: SPR; for HRAS/KRAS (ratio of KD value with respect to HRAS to KD value with respect to KRAS) / HRAS/KRAS (ratio of KD value for HRAS to KD value for KRAS): GDP-bound HRAS wild-type vs GDP-bound KRAS wild-type
GDP-bound HRAS wild-type protein, sequence (P01112 whole entry): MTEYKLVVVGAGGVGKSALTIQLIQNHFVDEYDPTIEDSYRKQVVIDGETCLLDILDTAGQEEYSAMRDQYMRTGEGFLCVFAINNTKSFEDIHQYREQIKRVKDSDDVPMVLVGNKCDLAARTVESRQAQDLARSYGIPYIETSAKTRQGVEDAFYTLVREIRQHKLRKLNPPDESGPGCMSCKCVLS

[2] = target: GDP-bound NRAS wild-type protein (Homo sapiens, UniProt P01111); assay: Binding to NRAS by surface plasmon resonance (SPR), Single Cycle Kinetics; settings: SPR; for NRAS/KRAS (ratio of KD value with respect to NRAS to KD value with respect to KRAS) / NRAS/KRAS (ratio of KD value for NRAS to KD value for KRAS): GDP-bound NRAS wild-type vs GDP-bound KRAS wild-type
GDP-bound NRAS wild-type protein, sequence (P01111 whole entry): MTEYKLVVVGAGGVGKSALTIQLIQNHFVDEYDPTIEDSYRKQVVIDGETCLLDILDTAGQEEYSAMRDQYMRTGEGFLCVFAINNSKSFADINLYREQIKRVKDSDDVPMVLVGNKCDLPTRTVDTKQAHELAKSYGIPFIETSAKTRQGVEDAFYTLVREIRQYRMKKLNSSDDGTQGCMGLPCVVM

## CCC[C@@H]1C[C@H]2C(=O)NC3(CCCC3)C(=O)N(C)[C@@H](C3CCCC3)C(=O)N(C)[C@H](C(=O)N(C)C)CC(=O)N(C)[C@@H](CC(C)C)C(=O)N[C@@H]([C@@H](C)CC)C(=O)N(C)CC(=O)N(C)[C@H]3C/C=C\CCN(C3=O)[C@@H](Cc3ccc(C)cc3)C(=O)N(C)CC(=O)N[C@@H](CCc3cc(F)c(C(F)(F)F)c(F)c3)C(=O)N2C1 [PP2193]
[1]
  HRAS/KRAS (ratio of KD value with respect to HRAS to KD value with respect to KRAS): A (a compound having 10 or more and less than 20 is denoted as A)
[2]
  NRAS/KRAS (ratio of KD value with respect to NRAS to KD value with respect to KRAS): A (a compound having 10 or more and less than 20 is denoted as A)

## CCC[C@@H]1C[C@H]2C(=O)NC3(CCCC3)C(=O)N(C)[C@@H](C3CCCC3)C(=O)N(C)[C@H](C(=O)N(C)C)CC(=O)N(C)[C@@H](CC)C(=O)N[C@@H]([C@@H](C)CC)C(=O)N(C)CC(=O)N(C)[C@H]3C/C=C\CCN(C3=O)[C@@H](Cc3ccc(C)cc3)C(=O)N(C)CC(=O)N[C@@H](CCc3cc(F)c(C(F)(F)F)c(F)c3)C(=O)N2C1 [PP2227]
[1]
  HRAS/KRAS (ratio of KD value with respect to HRAS to KD value with respect to KRAS): A (a compound having 10 or more and less than 20 is denoted as A)
[2]
  NRAS/KRAS (ratio of KD value with respect to NRAS to KD value with respect to KRAS): A (a compound having 10 or more and less than 20 is denoted as A)

## CCO[C@@H]1C[C@H]2C(=O)NC3(CCC3)C(=O)N(C)[C@@H](C3CCCC3)C(=O)N(C)[C@H](C(=O)N(C)C)CC(=O)N(C)[C@@H](CC3CC3)C(=O)N[C@@H]([C@@H](C)CC)C(=O)N(C)CC(=O)N(C)[C@H]3CCCCCN(C3=O)[C@@H](Cc3ccc(F)cc3)C(=O)N(C)CC(=O)N[C@@H](CCc3cc(F)c(C(F)(F)F)c(F)c3)C(=O)N2C1 [PP1192]
[1]; KD ratio
  HRAS/KRAS (ratio of KD value with respect to HRAS to KD value with respect to KRAS): A (a compound having 10 or more and less than 20 is denoted as A)
[2]; KD ratio
  NRAS/KRAS (ratio of KD value with respect to NRAS to KD value with respect to KRAS): B (a compound having 3 or more and less than 10 is denoted as B)

## CCCN1C(=O)CN(C)C(=O)CN(CC)C(=O)[C@H]([C@@H](C)CC)NC(=O)[C@H](CC(C)C)N(C)C(=O)C[C@@H](C(=O)N2CCOCC2)N(C)C(=O)[C@H](C2CCCC2)N(C)C(=O)C2(CCCC2)NC(=O)[C@@H]2CC(F)(F)CCN2C(=O)[C@H](CCc2ccc(C(F)(F)F)c(Cl)c2)NC(=O)CN(C)C(=O)[C@@H]1Cc1ccc(C(F)(F)F)cc1 [PP0298] ([NMeL]I[NEtG][Sar][NPrPhe(4-CF3)][Sar][hPhe(3-Cl-4-CF3)][Pip(4,4-F2)][Ac5c][NMeGly(cPent)][NMeD]-Morpholide; lactam N-11)
[1]; KD ratio HRAS/KRAS
  HRAS/KRAS (ratio of KD for GDP-bound HRAS wild-type to KD for KRAS): C (A compound having a KD ratio of 0.1 or more and less than 3 is denoted as C)
[2]; KD ratio NRAS/KRAS
  NRAS/KRAS (ratio of KD for GDP-bound NRAS wild-type to KD for KRAS): B (a compound having 3 or more and less than 10 is denoted as B)

## CCCN1C(=O)CN(C)C(=O)CN(C)C(=O)[C@H]([C@@H](C)CC)NC(=O)[C@H](CC(C)C)N(C)C(=O)C[C@@H](C(=O)N2CCOCC2)N(C)C(=O)[C@H](C2CCCC2)N(C)C(=O)C2(CCCC2)NC(=O)[C@@H]2CCCN2C(=O)[C@H](CCc2ccc(C(F)(F)F)c(Cl)c2)NC(=O)CN(C)C(=O)[C@@H]1Cc1ccc(C)cc1 [PP0059] ([NMeL]I[Sar][Sar][NPrPhe(4-Me)][Sar][hPhe(3-Cl-4-CF3)]P[Ac5c][NMeGly(cPent)][NMeD]-Morpholide; lactam N-11)
[1]; KD ratio HRAS/KRAS
  HRAS/KRAS (ratio of KD for GDP-bound HRAS wild-type to KD for KRAS): C (A compound having a KD ratio of 0.1 or more and less than 3 is denoted as C)
[2]; KD ratio NRAS/KRAS
  NRAS/KRAS (ratio of KD for GDP-bound NRAS wild-type to KD for KRAS): B (a compound having 3 or more and less than 10 is denoted as B)

## CC[C@H](C)[C@@H]1NC(=O)[C@H](CC)N(C)C(=O)C[C@@H](C(=O)N(C)CC)N(C)C(=O)[C@H](C2CCCC2)N(C)C(=O)C2(CC(C)(C)C2)NC(=O)[C@@H]2C[C@@H](C)CN2C(=O)[C@H](CCc2ccc(C(F)(F)F)c(Cl)c2)NC(=O)CN(C)C(=O)[C@H](Cc2ccc(C)cc2)N2CC/C=C\C[C@@H](C2=O)N(C)C(=O)CN(C)C1=O [PP1876]
[1]; KD ratio
  HRAS/KRAS (ratio of KD value for HRAS to KD value for KRAS): A (a compound having 10 or more and less than 20 is denoted as A)
[2]; KD ratio
  NRAS/KRAS (ratio of KD value for NRAS to KD value for KRAS): A (a compound having 10 or more and less than 20 is denoted as A)

## CCC[C@H]1C(=O)N[C@@H]([C@@H](C)CC)C(=O)N(C)CC(=O)N(C)[C@H]2C/C=C\CCN(C2=O)[C@@H](Cc2ccc(C(F)(F)F)cc2)C(=O)N(C)CC(=O)N[C@@H](CCc2ccc(C(F)(F)F)c(Cl)c2)C(=O)N2CC3(CC3)C[C@H]2C(=O)NC2(CC(C)(C)C2)C(=O)N(C)[C@@H](CC(F)(F)F)C(=O)N(C)[C@H](C(=O)N(C)C)CC(=O)N1C [PP2985]
[1]; KD ratio HRAS/KRAS, GDP-bound wild-type proteins
  HRAS/KRAS (ratio of KD value with respect to GDP-bound HRAS wild-type protein to KD value with respect to KRAS): A (a compound having 10 or more and less than 20 is denoted as A)
[2]; KD ratio NRAS/KRAS, GDP-bound wild-type proteins
  NRAS/KRAS (ratio of KD value with respect to GDP-bound NRAS wild-type protein to KD value with respect to KRAS): AA (a compound having 20 or more is denoted as AA)

## CC[C@H](C)[C@@H]1NC(=O)[C@H](C2CC2)N(C)C(=O)C[C@@H](C(=O)N(C)C)N(C)C(=O)[C@H](C2CCCC2)N(C)C(=O)C2(CCC2)N(C)C(=O)[C@@H]2C[C@@H](C)CN2C(=O)[C@H](CCc2cc(F)c(C(F)(F)F)c(F)c2)NC(=O)CN(C)C(=O)[C@H](Cc2ccc(C)cc2)N2CC/C=C\C[C@@H](C2=O)N(C)C(=O)CN(C)C1=O [PP1788]
[1]; KD ratio
  HRAS/KRAS (ratio of KD value for HRAS to KD value for KRAS): B (a compound having 3 or more and less than 10 is denoted as B)
[2]; KD ratio
  NRAS/KRAS (ratio of KD value for NRAS to KD value for KRAS): B (a compound having 3 or more and less than 10 is denoted as B)
